The data set can be described thus: Effect of suppressing precipitation of ellagic acid-metal ion complex (salting out, dynamic light scattering and visual check). The class given is physicochemical. To be noted: for degree of increase in particle size of complex with respect to the increase in salt concentration / precipitation, visually confirmed: additive 100 μM; for degree of increase in particle size of complex with respect to the increase in salt concentration: sodium chloride 10, 50 or 100 mM, FIG. 3; for precipitation, visually confirmed: sodium chloride concentration 100 mM; for precipitation suppressing effect versus additive concentration: additive at various concentrations, FIGS. 4A and 4B. The protocol: In an APTT reagent comprising a metal ion complex of ellagic acid as an activator, when the salt concentration increases, the complex particle size increases by the salting-out effect, and finally precipitation occurs. By utilizing the principle of salting out, the effect of suppressing the precipitation of various additives in ellagic acid-metal ion complex solutions was confirmed.
An ellagic acid-metal ion complex solution was prepared to contain 50 mM HEPES, 8 mM TAPS, and 1% by mass glycine as buffer components, 100 μM ellagic acid, 60 μM zinc chloride, and 50 μM aluminum chloride as a metal ion complex of ellagic acid, and 0.05% ProClin (trademark) 300 (Sigma-Aldrich Co., LLC.) as a preservative. A complex solution comprising each additive at a concentration of 100 μM was obtained by mixing this solution with any one selected from gallic acid, pyrogallol, hydroquinone, 5-methylpyrogallol, resorcinol, or cyclohexanetriol as an additive. As a control, an ellagic acid-metal ion complex solution not comprising an additive was used.
Each complex solution prepared in (1) above was mixed with a 5 M sodium chloride solution to obtain a mixed solution (test group) having a sodium chloride concentration of 10 mM, 50 mM, or 100 mM. The relationship between the salt concentration in each mixed solution and the average particle size of complex was confirmed by a dynamic scattered light method using Zetasizer Nano (Malvern Panalytical Ltd.). The results are illustrated in FIG. 3.
The effect of suppressing precipitation was confirmed in the same manner as in (2) above using the complex solutions containing gallic acid or pyrogallol at various concentrations. The results are illustrated in FIGS. 4A and 4B.

Consider `O=C(O)c1cc(O)c(O)c(O)c1` [gallic acid], for which the “degree of increase in particle size of complex with respect to the increase in salt concentration” value is given as “small”; the “precipitation, visually confirmed” value was “precipitation has not been visually confirmed”; the “precipitation suppressing effect versus additive concentration” value is given as “precipitation suppressing effect is observed at all concentrations”.

Consider `Oc1cccc(O)c1O` [pyrogallol], for which the “degree of increase in particle size of complex with respect to the increase in salt concentration” value was “small”; the “precipitation, visually confirmed” value is “precipitation has not been visually confirmed”; the “precipitation suppressing effect versus additive concentration” value was “precipitation suppressing effect is observed at all concentrations”.
